In PMC7782499, “Progerinin, an optimized progerin-lamin A binding inhibitor, ameliorates premature senescence phenotypes of Hutchinson-Gilford progeria syndrome” (Communications Biology, 2021):
“And” between values parts separate entries of the source, which are not always exact repeats. Equal entries are not always repeated.

Key:
[1] = Liver microsomal stability, rat; format: in vitro ADME; conditions: liver microsomes, read-out: Liver microsomal stability (% remaining during 30min)
Procedure: For PK analysis, 5 mg/kg of JH4 in 10% DMSO, 5% […] solution were intravenously injected and 10 mg/kg of JH4 in 10% NMP and 90% PEG400 solution were orally delivered. At pre-set time-points, blood concentration of JH4 was determined by LC-MS/MS analysis[22],[23]. Other chemicals were also tested using similar protocol. In vitro ADME studies (plasma protein binding, CYP inhibition, microsomal stability, plasma stability, and hERG inhibition) were performed by New Drug Development Center (Daegu, Korea) using standard protocols[24],[25].

Lmna G609G/+ mouse = assay: Heart rate (electrocardiographic analysis); format: in vivo; conditions: LMNA G609G/+ mice, SLC-D011 for 6 weeks
Source text: Fig. 4 Oral administration of SLC-D011 suppresses premature aging features. A Gross morphology of SLC-D011-treated (D011) mice at 8 weeks old. Body size of treated mouse was apparently larger than that of the untreated control (Con) mouse. B Oral administration of SLC-D011 increases body weights of Lmna^G609G/G609G mice. Compared with untreated control group, body weight of treated mouse was increased by ~35%, *p < 0.05. C Oral administration of SLC-D011 extends the life span of Lmna^G609G/G609G mouse. SLC-D011 in monoolein-based solution was treated by oral gavage (50 mg/kg, daily) from 5 weeks old. […] E Grip test of Lmna^G609G/+ mice at 41-week-old was performed after administration of SLC-D011 for 6 weeks. The test was repeated 10 times for each mouse (n > 4), **p < 0.001. Data are presented as mean ± SD. […] H Anti-aging effects of single treatment of SLC-D011 or lonafarnib were measured in HGPS patients-derived cells (AG11513, AG03199, AG11498, and AG03198, Coriell Cell Repositories). […] No unit is printed with them; the x axis reads Age (weeks). / Panel C: Ave=16.8 / Max=18 are printed beside the dashed curve of the control (Con). […]
For analysis of heart rate, mice were anesthetized with 2.5% isoflurane and monitored using LOGIQ E9 (GE Healthcare). […] Each estimate given corresponded to total reads measured ten times, excluding the minimum and the maximum from each group of animals.

CC1(C)Oc2cc3oc(=O)ccc3cc2C[C@@H]1OC/C=C/c1ccccc1 [SLC-D011]
remaining at 0.5 h [1]: 17.4%
Heart rate (Lmna G609G/+ mouse): 462 bmp and 447 bmp and 432 bmp and 454 bmp
